These results are taken from paper PMC12197678, “Cvill6 and Cvill7: Potent and Selective Peptide Blockers of Kv1.2 Ion Channel Isolated from Mexican Scorpion Centruroides villegasi” (Toxins, 2025).

This assay deals with T1, hKv1.3 (Homo sapiens, UniProt P22001).
T1 construct: peripheral blood mononuclear cells (PBMCs) were isolated from the healthy donor’s blood; endogenous in cells
Briefly: cell-based. In kind it is cell-based. The source says:
Therefore, we aimed to investigate the effects of Cvill6 and Cvill7 on voltage-gated K^+ ion channels. Among the tested ion channels there were four members from the Shaker-related human Kv1 family, hKv1.1, hKv1.2, hKv1.3, and hKv1.5 (Figure 3A–E), and one member of the human ether-a-go-go-related (hERG) cardiac K^+ channel hKv11.1 (hERG1, Figure 3F). For current recordings, Kv1.1, Kv1.2, and Kv1.5 were transiently expressed in CHO cells while for Kv11.1 a stable HEK293 cell line was used. To record Kv1.3 currents human peripheral T lymphocytes were activated with Phytohemagglutinin A (PHA) to boost Kv1.3 expression and Ca^2+-free intracellular solution to prevent the KCa3.1 channel opening. […] Appropriate voltage protocols were applied to record the K^+ currents from voltage-clamped cells in whole-cell configurations. Toxins were freshly dissolved in the bath solution supplemented with 0.1 mg/mL BSA and applied to the patched cells via a gravity-fed micro-perfusion system with an approximate flow rate of 200 µL/min.
To avoid toxin adsorption onto the plastic surfaces of the perfusion system, 0.1 mg/mL of bovine serum albumin (BSA, Sigma-Aldrich, Budapest, Hungary) was also added into all bath solutions prior to the patch-clamp assay.
Whole-cell currents were recorded using the patch-clamp technique in voltage-clamp mode, following standard protocols. […] Micropipettes were made from GC150F-7.5 borosilicate capillaries (Harvard Apparatus Co., Holliston, MA, USA) using a Sutter P2000 laser puller with tip resistance generally ranging from 3–6 MΩ in the bath solution. Only recordings with a leak current at the holding potential (Vh) of <10% of the peak current at the test potential were included in the data analysis. All recordings were performed at room temperature (20–25 °C). Control and test solutions were perfused to the cells via a gravity-driven micro-perfusion system and AutoMate Perfusion Pencil Multi-Barrel Manifold Tip (AutoMate Scientific, Berkeley, CA, USA), with an approximate flow rate of 200 µL/min, and the excess amount of bath solution was continuously removed from the recording chamber using vacuum suction.
The duration of depolarization pulses was 15 ms for Kv1.3 and 50 ms for Kv1.1 and Kv1.5. However, for Kv1.2, 15–500 ms-long pulses were used to achieve the saturated peak current due to the variable activation kinetics of this channel. […] KCa2.2 and KCa3.1 currents were recorded by applying 150 ms-long voltage ramps to +50 mV from −120 mV every 10 s; the Vh was set to −85 mV.
Before analysis, all current traces were digitally filtered using three-point boxcar smoothing and were corrected for ohmic leakage, only if required. […] Data points in the concentration–response curve represent the mean RCF values of three to six individual cells, with error bars denoting the standard error of the mean (SEM). The data points for each concentration were fitted using the Hill equation: RCF = IC50^H/(IC50^H + [toxin]^H), where IC50 is the dissociation constant, H represents the Hill coefficient, and [toxin] is the concentration of the toxin.
To study the binding kinetics of Cvill toxins, the peak current during the application of toxin at time point t (It) was normalized to the peak current (I0) before the toxin exposure (Inorm = It/I0) and plotted as a function of time.

[1] abbreviates: read-out: inhibition of hKv1.3 current.

Like-named read-outs stand apart in the source and are kept apart here. Positions of bridges follow the written chain, without caps; N, C: chain ends. Residues, ends and D or L forms follow the SMILES beside them.

T1 sequence (P22001 whole entry): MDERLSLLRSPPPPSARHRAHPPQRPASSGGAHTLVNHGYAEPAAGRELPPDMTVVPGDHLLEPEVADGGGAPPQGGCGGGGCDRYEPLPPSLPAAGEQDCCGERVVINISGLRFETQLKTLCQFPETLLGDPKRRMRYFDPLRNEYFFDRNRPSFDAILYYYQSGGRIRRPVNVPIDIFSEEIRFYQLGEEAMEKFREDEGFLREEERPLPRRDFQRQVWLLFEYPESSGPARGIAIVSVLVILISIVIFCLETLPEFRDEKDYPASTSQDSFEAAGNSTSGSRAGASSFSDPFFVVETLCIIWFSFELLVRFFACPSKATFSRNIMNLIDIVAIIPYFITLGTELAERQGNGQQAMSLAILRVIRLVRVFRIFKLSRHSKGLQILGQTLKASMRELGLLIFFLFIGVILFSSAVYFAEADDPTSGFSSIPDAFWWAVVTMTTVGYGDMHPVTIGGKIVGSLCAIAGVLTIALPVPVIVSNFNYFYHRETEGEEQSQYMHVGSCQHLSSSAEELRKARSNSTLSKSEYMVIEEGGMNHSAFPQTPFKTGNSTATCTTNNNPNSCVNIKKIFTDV

In the case of `CC[C@H](C)[C@H](N)C(=O)N[C@@H](Cc1ccccc1)C(=O)N[C@H](C(=O)N[C@@H](CC(N)=O)C(=O)N[C@H](C(=O)N[C@@H](CCCCN)C(=O)N[C@H]1CSSC[C@@H]2NC(=O)[C@H](CCCCN)NC(=O)CNC(=O)CNC(=O)[C@H](C)NC(=O)[C@H](Cc3c[nH]cn3)NC(=O)[C@H](CCC(N)=O)NC(=O)CNC(=O)[C@H](Cc3ccccc3)NC(=O)[C@H](CCCNC(=N)N)NC(=O)[C@H](CC(=O)O)NC(=O)[C@H](CCCCN)NC(=O)[C@@H]3CSSC[C@@H](C(=O)N[C@@H](Cc4ccc(O)cc4)C(=O)N4CCC[C@H]4C(=O)O)NC(=O)[C@H](CCCCN)NC(=O)[C@H](CSSC[C@H](NC(=O)[C@H](CCC(N)=O)NC(=O)[C@H](CCC(N)=O)NC(=O)[C@@H]4CCCN4C(=O)[C@H](CC(C)C)NC(=O)[C@H](CC(=O)O)NC1=O)C(=O)N[C@@H](CC(C)C)C(=O)N[C@@H](CCCNC(=N)N)C(=O)N1CCC[C@H]1C(=O)N3)NC(=O)[C@H](CCCCN)NC(=O)CNC(=O)[C@H](CC(N)=O)NC(=O)[C@H]([C@@H](C)CC)NC2=O)C(C)C)[C@@H](C)CC` [Cvill6] (H-IFINVKCDLPQQCLRPCKDRFGQHAGGKCINGKCKCYP-OH; disulfide 7-29, 13-34, 17-36 (inferred); N-terminus and C-terminus assumed), the potency estimated from few doses (read-out: estimated IC50) is ~840 nM. Besides, the inhibition – broadly, the relative decrease from the control value, in per cent – at 0.1 µM runs as follows: (read-out: inhibition of Kv1.3) ~11%; under setting [1], ~13%.

As for `CC[C@H](C)[C@H](NC(=O)[C@H](Cc1ccccc1)NC(=O)[C@@H](N)[C@@H](C)O)C(=O)N[C@@H](CC(N)=O)C(=O)N[C@H](C(=O)N[C@@H](CCCCN)C(=O)N[C@H]1CSSC[C@@H]2NC(=O)[C@H](CCCCN)NC(=O)CNC(=O)CNC(=O)[C@H](C)NC(=O)[C@H](Cc3c[nH]cn3)NC(=O)[C@@H]3CCCN3C(=O)CNC(=O)[C@H](Cc3ccc(O)cc3)NC(=O)[C@H](CC(C)C)NC(=O)[C@H](CC(=O)O)NC(=O)[C@H](CCCCN)NC(=O)[C@@H]3CSSC[C@@H](C(=O)N[C@@H](Cc4ccc(O)cc4)C(=O)N[C@@H](CC(N)=O)C(=O)N[C@@H](CC(N)=O)C(N)=O)NC(=O)[C@H](CCCCN)NC(=O)[C@H](CSSC[C@H](NC(=O)[C@H](CCC(N)=O)NC(=O)[C@H](CCCCN)NC(=O)[C@@H]4CCCN4C(=O)[C@H](CO)NC(=O)[C@H]([C@@H](C)O)NC1=O)C(=O)N[C@@H](CC(C)C)C(=O)N[C@@H](CCCCN)C(=O)N1CCC[C@H]1C(=O)N3)NC(=O)[C@H](CCCCN)NC(=O)CNC(=O)[C@H](CC(N)=O)NC(=O)[C@H](CCSC)NC2=O)C(C)C` [Cvill7] (H-TFINVKCTSPKQCLKPCKDLYGPHAGGKCMNGKCKCYNN-NH2; disulfide 7-29, 13-34, 17-36; N-terminus and C-terminus assumed), the half-inhibitory concentration (IC50) (usually the concentration needed to halve the response being measured) is 7.2 ± 0.64 nM, the Kd (usually the equilibrium constant for the complex coming apart) was 25 nM, the koff (usually a measure of how fast the partners let go of each other) stood at 0.032 ± 0.0068 s⁻¹ and the association rate constant (kon) (commonly the rate constant with which the complex forms) is 1.3e+06 M⁻¹ s⁻¹. Also, for the setting “15 nM, then toxin-free solution”, the “reversibility of Kv1.3 block” value was “fully reversible with rapid association and dissociation kinetics”. The “equilibrium block of Kv1.3” value (15 nM, n = 3) was 67 ± 3%. Further, the “τon (development of block)” value (Kv1.3, 15 nM, mean ± SEM, n = 3) amounted to 20 ± 1.8 s. Further, the “τon, representative fit” value (Kv1.3, 15 nM, representative fit (Figure S5B)) is 22.6 s. In addition, the “Hill coefficient (H)” value (Kv1.3, Hill equation fit of RCF values) was 0.73. Besides, the “τoff (wash-out)” value (Kv1.3, after 15 nM, mean ± SEM, n = 3) is recorded as 34 ± 6 s. Where the note is “Kv1.3, after 15 nM, representative fit (Figure S5B)”, the “τoff, representative fit” value is 34.5 s. The inhibition at 0.1 µM under setting [1] is ~86%.
